Results reported in patent US8263606B2 (Xenon Pharmaceuticals Inc., priority 2008, dated 2012).

How the values were obtained:
CYP3A4 = CYP3A4 (Homo sapiens, UniProt P08684); assay: Cytochrome P450 (CYP450) Inhibition Assay, CYP3A4 (Vivid fluorescence, BOMCC substrate); conditions: for inhibition at 10 µM: human, P450 Baculosomes (recombinant CYP3A4), probe BOMCC (Vivid substrate)
Chain of CYP3A4 (P08684 whole entry): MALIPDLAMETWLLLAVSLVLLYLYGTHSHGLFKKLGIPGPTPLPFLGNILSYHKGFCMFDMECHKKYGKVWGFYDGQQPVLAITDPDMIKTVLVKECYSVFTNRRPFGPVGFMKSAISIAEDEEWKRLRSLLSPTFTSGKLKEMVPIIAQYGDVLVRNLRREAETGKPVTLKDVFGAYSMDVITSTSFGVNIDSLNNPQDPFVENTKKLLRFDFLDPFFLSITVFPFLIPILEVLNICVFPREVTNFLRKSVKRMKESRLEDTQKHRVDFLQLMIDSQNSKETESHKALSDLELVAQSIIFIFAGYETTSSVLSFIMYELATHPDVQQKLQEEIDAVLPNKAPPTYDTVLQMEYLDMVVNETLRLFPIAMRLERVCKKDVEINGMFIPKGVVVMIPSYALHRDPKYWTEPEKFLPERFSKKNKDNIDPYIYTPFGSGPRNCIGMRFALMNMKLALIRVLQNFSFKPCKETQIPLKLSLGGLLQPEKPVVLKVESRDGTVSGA

SMILES | melting point [°C] | inhibition at 10 µM (CYP3A4) [%] | % Inhibition of CYP3A4 (CYP3A4; CYP3A4 isozyme, at 10 μM)
COCCOCCOc1cccc2c1C1(COc3cc4c(cc31)OCCO4)C(=O)N2C (stereo not drawn) [Example 16.54, 4′-[2-(2-methoxyethoxy)ethoxy]-1′-methyl-2,3-dihydrospiro[furo[2,3-g][1,4]benzodioxine-8,3′-indol]-2′(1′H)-one] | 109 to 110 | < 50 | –
Cl.O=C1N(Cc2ccccn2)c2ccccc2C12COc1cc3c(cc12)OCCO3 (stereo not drawn) [Example 4.42, 1′-(pyridin-2-ylmethyl)-2,3-dihydrospiro[furo[2,3-g][1,4]benzodioxine-8,3′-indol]-2′(1′H)-one hydrochloride] | 206 to 208 | – | A (percent inhibition of less than 50% at 10 μM)
COc1cccc(Oc2cccc3c2C2(COc4cc5c(cc42)OCCO5)C(=O)N3C)c1 (stereo not drawn) [Example 16.79, 4′-(3-methoxyphenoxy)-1′-methyl-2,3-dihydrospiro[furo[2,3-g][1,4]benzodioxine-8,3′-indol]-2′(1′H)-one] | 166 to 168 | > 50 | –
Nc1cccc(CN2C(=O)C3(COc4cc5c(cc43)OCCO5)c3ccccc32)n1 (stereo not drawn) [Example 34, 1′-[(6-aminopyridin-2-yl)methyl]-2,3-dihydrospiro[furo[2,3-g][1,4]benzodioxine-8,3′-indol]-2′(1′H)-one] | 240 to 241 | > 50 | –
CN1C(=O)C2(COc3cc4c(cc32)OCCO4)c2c(C(=O)O)cccc21 (stereo not drawn) [Example 11.77, 1′-methyl-2′-oxo-1′,2,2′,3-tetrahydrospiro[furo[2,3-g][1,4]benzodioxine-8,3′-indole]-4′-carboxylic acid] | 297 to 299 | < 50 | –
CCCCCCNC(=O)c1cccc2c1C1(COc3cc4c(cc31)OCCO4)C(=O)N2C (stereo not drawn) [Example 16.45, N-hexyl-1′-methyl-2′-oxo-1′,2,2′,3-tetrahydrospiro[furo[2,3-g][1,4]benzodioxine-8,3′-indole]-4′-carboxamide] | 172 to 173 | > 50 | –
Cc1noc(C)c1-c1cccc2c1C1(COc3cc4c(cc31)OCCO4)C(=O)N2C (stereo not drawn) [Example 16.75, 4′-(3,5-dimethylisoxazol-4-yl)-1′-methyl-2,3-dihydrospiro[furo[2,3-g][1,4]benzodioxine-8,3′-indol]-2′(1′H)-one] | 228 to 230 | > 50 | –
COc1ncc(CN2C(=O)C3(COc4cc5c(cc43)OCCO5)c3ccccc32)cn1 (stereo not drawn) [Example 5.14, 1′-[(2-methoxypyrimidin-5-yl)methyl]-2,3-dihydrospiro[furo[2,3-g][1,4]benzodioxine-8,3′-indol]-2′(1′H)-one] | 248 to 249 | < 50 | –
CN1C(=O)C2(COc3cc4c(cc32)OCCO4)c2c(OCc3ccccn3)cccc21 (stereo not drawn) [Example 16.85, 1′-methyl-4-(pyridine-2-ylmethoxy)-2,3-dihydrospiro[furo[2,3-g][1,4]benzodioxine-8,3′-indol]-2′(1′H)-one] | 181 to 183 | > 50 | –
O=C1N(Cc2cc3ccccc3o2)c2ccccc2C12COc1cc3c(cc12)OCO3 (stereo not drawn) [Example 1.8, 1′-(1-benzofuran-2-ylmethyl)spiro[furo[2,3-f][1,3]-benzodioxole-7,3′-indol]-2′(1′H)-one] | 167 to 168 | > 50 | –
CN1C(=O)C2(COc3cc4c(cc32)OCCO4)c2c(NC(=O)C3CCC3)cccc21 (stereo not drawn) [Example 16.20, N-(1′-methyl-2′-oxo-1′,2,2′,3-tetrahydrospiro[furo[2,3-g][1,4]benzodioxine-8,3′-indol]-4′-yl)cyclobutanecarboxamide] | 234 to 236 | < 50 | –
Nc1cccc2c1C1(COc3cc4c(cc31)OCCO4)C(=O)N2Cc1ncccc1C(F)(F)F (stereo not drawn) [Example 16.50, 4′-amino-1′-{[3-(trifluoromethyl)pyridin-2-yl]methyl}-2,3-dihydrospiro[furo[2,3-g][1,4]benzodioxine-8,3′-indol]-2′(1′H)-one] | 243 to 245 | < 50 | –
CN1C(=O)C2(COc3cc4c(cc32)OCCO4)c2c(NC(=O)C3CCCC3)cccc21 (stereo not drawn) [Example 16.24, N-(1′-methyl-2′-oxo-1′,2,2′,3-tetrahydrospiro[furo[2,3-g][1,4]benzodioxine-8,3′-indol]-4′-yl)cyclopentanecarboxamide] | 196 to 198 | < 50 | –
CN1C(=O)C2(COc3cc4c(cc32)OCCO4)c2c(C(=O)NCc3ccccn3)cccc21 (stereo not drawn) [Example 16.46, 1′-methyl-2′-oxo-N-(pyridin-2-ylmethyl)-1′,2,2′,3-tetrahydrospiro[furo[2,3-g][1,4]benzodioxine-8,3′-indole]-4′-carboxamide] | 214 to 215 | < 50 | –
O=C1N(Cc2cccnc2C(F)(F)F)c2ccccc2C12COc1cc3c(cc12)OCCO3 (stereo not drawn) [Example 5.10, 1′-{[2-(trifluoromethyl)pyridin-3-yl]methyl}-2,3-dihydrospiro[furo[2,3-g][1,4]benzodioxine-8,3′-indol]-2′(1′H)-one] | 219 to 220 | < 50 | –
CN1C(=O)C2(COc3cc4c(cc32)OCCO4)c2c1cccc2N1CCCC1=O (stereo not drawn) [Example 16.16, 1′-methyl-4′-(2-oxopyrrolidin-1-yl)-2,3-dihydrospiro[furo[2,3-g][1,4]benzodioxine-8,3′-indol]-2′(1′H)-one] | 256 to 258 | < 50 | –
Cc1nc(-c2cccc3c2C2(COc4cc5c(cc42)OCCO5)C(=O)N3C)no1 (stereo not drawn) [Example 16.74, 1′-methyl-4′-(5-methyl-1,2,4-oxadiazol-3-yl)-2,3-dihydrospiro[furo[2,3-g][1,4]benzodioxine-8,3′-indol]-2′(1′H)-one] | 199 to 201 | < 50 | –
CN1C(=O)C2(COc3cc4c(cc32)OCCO4)c2c(-c3ccoc3)cccc21 (stereo not drawn) [Example 16.68, 4′-furan-3-yl-1′-methyl-2,3-dihydrospiro[furo[2,3-g][1,4]benzodioxine-8,3′-indol]-2′(1′H)-one] | 178 to 180 | > 50 | –
Cc1nc(-c2cccc3c2C2(COc4cc5c(cc42)OCCO5)C(=O)N3C)cs1 (stereo not drawn) [Example 25, 1′-methyl-4′-(2-methyl-1,3-thiazol-4-yl)-2,3-dihydrospiro[furo[2,3-g][1,4]benzodioxine-8,3′-indol]-2′(1′H)-one] | 219 to 220 | > 50 | –
CN1C(=O)C2(COc3cc4c(cc32)OCCO4)c2c(N)cccc21 (stereo not drawn) [Example 16.19, 4′-amino-1′-methyl-2,3-dihydrospiro[furo[2,3-g][1,4]benzodioxine-8,3′-indol]-2′(1′H)-one] | 252 to 254 | < 50 | –
CN1C(=O)C2(COc3cc4c(cc32)OCCO4)c2c(O)cccc21 (stereo not drawn) [Example 16.52, 4′-hydroxy-1′-methyl-2,3-dihydrospiro[furo[2,3-g][1,4]benzodioxine-8,3′-indol]-2′(1′H)-one] | > 250 | < 50 | –
CN1C(=O)C2(COc3cc4c(cc32)OCCO4)c2c(NC(=O)c3ccccc3)cccc21 (stereo not drawn) [Example 16.27, N-(1′-methyl-2′-oxo-1′,2,2′,3-tetrahydrospiro[furo[2,3-g][1,4]benzodioxine-8,3′-indol]-4′-yl)benzamide] | 192 to 194 | > 50 | –
CN1C(=O)C2(COc3cc4c(cc32)OCCO4)c2c(Oc3ccc(F)cc3)cccc21 (stereo not drawn) [Example 16.87, 4′-(4-fluorophenoxy)-1′-methyl-2,3-dihydrospiro[furo[2,3-g][1,4]benzodioxine-8,3′-indol]-2′(1′H)-one] | 151 to 153 | > 50 | –
CN1C(=O)C2(COc3cc4c(cc32)OCCO4)c2c(OCc3ccccc3)cccc21 (stereo not drawn) [Example 16.57, 4′-(benzyloxy)-1′-methyl-2,3-dihydrospiro[furo[2,3-g][1,4]benzodioxine-8,3′-indol]-2′(1′H)-one] | 198 to 200 | > 50 | –
CN1C(=O)C2(COc3cc4c(cc32)OCCO4)c2c(N3CCOCC3)cccc21 (stereo not drawn) [Example 16.17, 1′-methyl-4′-morpholin-4-yl-2,3-dihydrospiro[furo[2,3-g][1,4]benzodioxine-8,3′-indol]-2′(1′H)-one] | 246 to 249 | < 50 | –
COCCNC(=O)c1cccc2c1C1(COc3cc4c(cc31)OCCO4)C(=O)N2C (stereo not drawn) [Example 16.43, N-(2-methoxyethyl)-1′-methyl-2′-oxo-1′,2,2′,3-tetrahydrospiro[furo[2,3-g][1,4]benzodioxine-8,3′-indole]-4′-carboxamide] | 97 to 100 | < 50 | –
CN1C(=O)C2(COc3cc4c(cc32)OCCO4)c2c(-c3cc[nH]n3)cccc21 (stereo not drawn) [Example 16.67, 1′-methyl-4′-(1H-pyrazol-3-yl)-2,3-dihydrospiro[furo[2,3-g][1,4]benzodioxine-8,3′-indol]-2′(1′H)-one] | 201 to 202 | > 50 | –
CCCCCC(=O)Nc1cccc2c1C1(COc3cc4c(cc31)OCCO4)C(=O)N2C (stereo not drawn) [Example 16.32, N-(1′-methyl-2′-oxo-1′,2,2′,3-tetrahydrospiro[furo[2,3-g][1,4]benzodioxine-8,3′-indol]-4′-yl)hexanamide] | 151 to 153 | < 50 | –
CN1C(=O)C2(COc3cc4c(cc32)OCCO4)c2c(NC(=O)C3CCCCC3)cccc21 (stereo not drawn) [Example 16.23, N-(1′-methyl-2′-oxo-1′,2,2′,3-tetrahydrospiro[furo[2,3-g][1,4]benzodioxine-8,3′-indol]-4′-yl)cyclohexanecarboxamide] | 96 to 98 | < 50 | –
CCCCC(=O)Nc1cccc2c1C1(COc3cc4c(cc31)OCCO4)C(=O)N2C (stereo not drawn) [Example 16.30, N-(1′-methyl-2′-oxo-1′,2,2′,3-tetrahydrospiro[furo[2,3-g][1,4]benzodioxine-8,3′-indol]-4′-yl)pentanamide] | 182 to 183 | < 50 | –
